For one assay, the target named is T1, CSF1R (human) (Homo sapiens, UniProt P07333).
T1 construct: made in house; host or cells: T7 phage display or HEK-293 cells (alternatives, not resolved per kinase)
The experiment in a line: Competition binding assay, CSF1R (human) Kd.

The next assay concerns the target T2, CSF1R (mouse) (Mus musculus, UniProt P09581).
T2 construct: made in house; host or cells: T7 phage display or HEK-293 cells (alternatives, not resolved per kinase)
T2 sequence (P09581 20-977): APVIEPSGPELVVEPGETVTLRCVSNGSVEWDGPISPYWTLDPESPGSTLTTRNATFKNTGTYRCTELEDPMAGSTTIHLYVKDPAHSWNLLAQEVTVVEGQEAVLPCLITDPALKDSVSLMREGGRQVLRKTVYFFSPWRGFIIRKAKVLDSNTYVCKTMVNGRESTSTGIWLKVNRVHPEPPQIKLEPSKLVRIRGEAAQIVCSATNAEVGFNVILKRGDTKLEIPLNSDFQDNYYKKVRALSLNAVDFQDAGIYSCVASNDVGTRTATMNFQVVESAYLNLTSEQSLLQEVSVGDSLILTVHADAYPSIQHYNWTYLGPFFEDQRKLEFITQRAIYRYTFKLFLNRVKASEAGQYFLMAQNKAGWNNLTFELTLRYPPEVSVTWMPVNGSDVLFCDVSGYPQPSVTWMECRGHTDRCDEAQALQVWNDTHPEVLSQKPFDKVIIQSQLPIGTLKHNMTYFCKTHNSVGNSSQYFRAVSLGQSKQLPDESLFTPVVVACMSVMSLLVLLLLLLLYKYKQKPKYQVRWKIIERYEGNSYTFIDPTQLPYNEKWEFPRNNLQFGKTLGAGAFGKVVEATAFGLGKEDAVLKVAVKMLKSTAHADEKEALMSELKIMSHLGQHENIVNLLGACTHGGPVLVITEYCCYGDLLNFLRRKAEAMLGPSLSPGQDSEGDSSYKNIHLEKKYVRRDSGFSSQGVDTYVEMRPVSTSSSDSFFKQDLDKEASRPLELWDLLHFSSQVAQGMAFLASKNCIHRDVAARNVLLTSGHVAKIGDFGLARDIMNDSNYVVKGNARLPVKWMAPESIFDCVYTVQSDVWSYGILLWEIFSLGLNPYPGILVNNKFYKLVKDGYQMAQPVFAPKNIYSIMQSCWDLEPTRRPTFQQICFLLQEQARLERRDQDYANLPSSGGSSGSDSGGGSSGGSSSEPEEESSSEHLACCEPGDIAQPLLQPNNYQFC
The experiment in a line: Competition binding assay, CSF1R (mouse) Kd. As to the method: The liganded beads were blocked with excess biotin and washed with blocking buffer (SeaBlock (Pierce), 1% BSA, 0.05% Tween 20, 1 mM DTT) to remove unbound ligand and to reduce non-specific binding. […] Test compounds were prepared as 100× stocks in DMSO and diluted into the aqueous environment. Kds were determined using an eleven point threefold serial dilutions. DMSO or control compounds were was added to control assays lacking a test compound. […] The kinase concentration in the eluates was measured by quantitative PCR.

The test system of the next assay is M-NFS-60 cells. The assay can be described thus: M-NFS-60 cell proliferation assay. It counts as cell-based, mouse. As to conditions: Mus musculus; 72 hours incubation, Alamar Blue, M-CSF-dependent cells; read-out: CSF1R Cell Proliferation (M-NFS-60) IC50. Summed up: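 Mouse monocytic M-NFS-60 cells, M-CSF-dependent (20 ng/mL M-CSF, 10% FBS), seeded 10,000/well overnight, then exposed to 9 half-log compound concentrations (0.5% DMSO) for 72 h at 37 °C. Viability by Alamar Blue fluorescence (560/590 nm) after 3 h; IC50 as mean of duplicates versus control.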

Assay [1] concerns the target kinase panel containing either 359 or 386 distinct kinases. The assay can be described thus: Competition binding assay, selectivity score (S10) against a panel of kinases. As to conditions: compounds at 10 μM; fraction of kinases with percent of control less than 10.

T1 sequence (P07333 20-972): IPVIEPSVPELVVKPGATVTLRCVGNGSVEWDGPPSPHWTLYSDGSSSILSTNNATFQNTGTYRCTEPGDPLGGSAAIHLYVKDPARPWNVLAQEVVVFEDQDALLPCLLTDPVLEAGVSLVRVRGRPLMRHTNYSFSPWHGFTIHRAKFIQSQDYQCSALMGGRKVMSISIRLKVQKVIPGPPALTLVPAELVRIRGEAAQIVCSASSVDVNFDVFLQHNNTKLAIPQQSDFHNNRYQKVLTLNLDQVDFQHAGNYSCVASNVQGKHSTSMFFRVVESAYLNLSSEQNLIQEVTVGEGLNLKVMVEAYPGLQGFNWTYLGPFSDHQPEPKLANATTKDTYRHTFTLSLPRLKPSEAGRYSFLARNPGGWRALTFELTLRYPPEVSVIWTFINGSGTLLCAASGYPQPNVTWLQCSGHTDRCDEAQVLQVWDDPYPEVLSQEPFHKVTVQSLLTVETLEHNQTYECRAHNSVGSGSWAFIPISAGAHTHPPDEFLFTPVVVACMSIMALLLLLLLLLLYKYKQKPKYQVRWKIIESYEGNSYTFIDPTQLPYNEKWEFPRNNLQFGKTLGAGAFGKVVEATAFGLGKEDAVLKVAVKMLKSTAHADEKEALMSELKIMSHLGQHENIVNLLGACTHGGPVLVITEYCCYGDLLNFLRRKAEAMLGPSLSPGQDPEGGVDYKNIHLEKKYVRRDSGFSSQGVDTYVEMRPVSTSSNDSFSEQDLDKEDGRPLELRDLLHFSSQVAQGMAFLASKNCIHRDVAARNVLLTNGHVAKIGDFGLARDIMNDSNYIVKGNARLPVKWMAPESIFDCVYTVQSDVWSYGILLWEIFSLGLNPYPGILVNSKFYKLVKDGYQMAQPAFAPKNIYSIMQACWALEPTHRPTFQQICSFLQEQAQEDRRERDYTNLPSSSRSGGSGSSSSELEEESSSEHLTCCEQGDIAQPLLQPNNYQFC

Usually Kd stands for the concentration at which binding is half-saturated. As to `CN1CCN(c2ccnc(C(=O)Nc3ccc(NC(=O)Nc4cc(C(C)(C)C)on4)cc3)c2)CC1`, the Kd at CSF1R (human) and on CSF1R (mouse) was 3 to 10 nM throughout. In addition, the IC50 in the assay with M-NFS-60 cells lay within 100 to 250 nM. For the same molecule, in assay [1], the “Kinase Specificity (S10)” value is given as “B (0.03 < B ≦ 0.05)”.

As to `CC(C)(C)c1cc(NC(=O)Nc2ccc(NC(=O)c3cccc(CN)n3)cc2)no1.Cl`, the Kd at CSF1R (human) and at CSF1R (mouse) was greater than 10 nM throughout. Further, in the assay on M-NFS-60 cells, the IC50 fell in the range of 250 to 1000 nM. Also, the “Kinase Specificity (S10)” value in assay [1] is “A (A ≦ 0.03)”.

The record behind these values is patent publication US9296722B2, “Azolyl urea compounds and methods of use thereof” (Ambit Biosciences Corporation, priority 2010, dated 2016).
